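Tested at 5 concentrations; 48 h exposure; 96-well plates; endpoints linearly interpolated, else capped at highest concentration. Abbreviation: GI50, concentration required for 50% inhibition of growth.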 Active and inactive are the calls of the source. Cut-off read from the data, not from the text of the source: active = GI50 up to about 1.1 µM and inactive = higher.
Experiments:
Assay in all cases: NCI anticancer screen, dose series, 48 h
OVCAR-8 = tested on: OVCAR-8
SR = tested on: SR
HOP-62 = tested on: HOP-62
CAKI-1 = tested on: CAKI-1
K562 = tested on: K562
SF-268 = tested on: SF-268
DU-145 = tested on: DU-145
NCI-H460 = tested on: NCI-H460
HT-29 = tested on: HT-29
NCI-H522 = tested on: NCI-H522
OVCAR-4 = tested on: OVCAR-4
MCF7 = tested on: MCF7
RXF 393 = tested on: RXF 393
PC-3 = tested on: PC-3
CCRF-CEM = tested on: CCRF-CEM
Malme-3M = tested on: Malme-3M
OVCAR-5 = tested on: OVCAR-5
COLO 205 = tested on: COLO 205
HCC 2998 = tested on: HCC 2998
M14 = tested on: M14

Measured: GI50

CSc1nnc(SCc2nn3c(=O)cc(C)nc3s2)s1
inactive: OVCAR-8 > 100 µM | SR > 100 µM | HOP-62 > 100 µM | CAKI-1 > 100 µM | K562 > 100 µM | SF-268 > 100 µM | DU-145 > 100 µM | NCI-H460 > 100 µM | HT-29 > 100 µM | NCI-H522 > 100 µM | OVCAR-4 24.4 µM | MCF7 > 100 µM | RXF 393 66.8 µM | PC-3 > 100 µM | CCRF-CEM > 100 µM | Malme-3M > 100 µM | OVCAR-5 > 100 µM | COLO 205 > 100 µM | HCC 2998 > 100 µM | M14 > 100 µM

CCOC(=O)C(C(=O)OCC)=C1NC2(c3ccccc3Nc3ccc(C)cc32)C(C#N)S1 (stereo not given)
inactive: OVCAR-8 8.61 µM | SR 2.44 µM | HOP-62 11.4 µM | CAKI-1 11.8 µM | K562 4.9 µM | SF-268 9.12 µM | DU-145 11.3 µM | NCI-H460 3.27 µM | HT-29 3.56 µM | NCI-H522 11.2 µM | OVCAR-4 5.66 µM | MCF7 3.05 µM | RXF 393 6.68 µM | PC-3 3.56 µM | CCRF-CEM 4.27 µM | Malme-3M 15 µM | OVCAR-5 11.3 µM | COLO 205 4.04 µM | HCC 2998 3.57 µM | M14 3.92 µM

ClCc1nc2cc(Cl)ccc2o1
inactive: OVCAR-8 4.91 µM | SR 1.7 µM | HOP-62 2.27 µM | CAKI-1 1.65 µM | K562 2.56 µM | SF-268 7.98 µM | DU-145 6.21 µM | NCI-H460 12.5 µM | HT-29 2.54 µM | NCI-H522 1.6 µM | OVCAR-4 1.71 µM | MCF7 2.47 µM | RXF 393 12.2 µM | PC-3 5.15 µM | CCRF-CEM 1.96 µM | Malme-3M 11.5 µM | OVCAR-5 18.7 µM | COLO 205 2.65 µM | HCC 2998 2.26 µM | M14 4.31 µM

COC1OC(C(=O)O)C2OC(C)(C)OC12 (stereo not given)
inactive: OVCAR-8 > 100 µM | SR > 100 µM | HOP-62 > 100 µM | CAKI-1 > 100 µM | K562 > 100 µM | SF-268 > 100 µM | DU-145 > 100 µM | NCI-H460 > 100 µM | HT-29 > 100 µM | NCI-H522 > 100 µM | OVCAR-4 > 100 µM | MCF7 > 100 µM | RXF 393 > 100 µM | PC-3 > 100 µM | CCRF-CEM > 100 µM | Malme-3M > 100 µM | OVCAR-5 > 100 µM | COLO 205 > 100 µM | HCC 2998 > 100 µM | M14 > 100 µM

COc1cccc(C2c3cc4c(cc3OC(Nc3ccccc3)C2C)OCO4)c1O (stereo not given)
inactive: OVCAR-8 12.9 µM | SR 3.66 µM | HOP-62 12.9 µM | CAKI-1 13.5 µM | K562 2.83 µM | SF-268 12.2 µM | DU-145 15.4 µM | NCI-H460 4.97 µM | HT-29 5.74 µM | NCI-H522 4.4 µM | OVCAR-4 36.3 µM | MCF7 6.68 µM | RXF 393 5.05 µM | PC-3 4.14 µM | CCRF-CEM 2.58 µM | Malme-3M 7.24 µM | OVCAR-5 30.1 µM | COLO 205 4.3 µM | HCC 2998 11.7 µM | M14 3.84 µM

Cc1c(O)c(OC2OC(CO)C(O)C(O)C2O)cc2c1C=C[C@@H]1[C@@]2(C)C(=O)C[C@]2(C)[C@@H]([C@@](C)(O)C(=O)CCC(C)(C)O)[C@H](O)C[C@@]12C (stereo not given in full)
inactive: OVCAR-8 33.3 µM | SR 35.9 µM | HOP-62 31.7 µM | CAKI-1 20 µM | K562 34.1 µM | SF-268 28.7 µM | DU-145 23.7 µM | NCI-H460 20.2 µM | HT-29 28.8 µM | NCI-H522 24.6 µM | OVCAR-4 25.4 µM | MCF7 33.6 µM | RXF 393 18.6 µM | PC-3 21.6 µM | CCRF-CEM 37.3 µM | Malme-3M 24 µM | OVCAR-5 25.6 µM | COLO 205 35.5 µM | HCC 2998 20.5 µM | M14 26.4 µM
